Consider eight compounds from ChEMBL document CHEMBL3997848 (Bioorg Med Chem, 2017).

Square brackets hold non-standard residues; d marks the D form. Peptide text beside a SMILES is read from it.

Assay [1] deals with Mu opioid receptor-like OR2 (Danio rerio, UniProt B8JHS2). Description: Displacement of [3H]DPN from zebrafish mu opioid receptor expressed in HEK293 cell membranes after 1 hr by scintillation counting method. (In a radioligand displacement assay an active substance lowers the binding of a labelled ligand.)
The target of assay [2] is Opioid receptor, delta 1b (Danio rerio, UniProt B3DH72). The assay is described as follows: Displacement of [3H]DPN from zebrafish delta 1b opioid receptor expressed in HEK293 cell membranes after 4 hrs by scintillation counting method.
Assay [3] concerns the target Opioid receptor homologue (Danio rerio, UniProt A3QJX7). The assay is described as follows: Displacement of [3H]DPN from zebrafish delta 1a opioid receptor expressed in HEK293 cell membranes after 1 hr by scintillation counting method.
For assay [4], the system named is Mus musculus. The assay is described as follows: Antinociceptive activity in C57BL6/J mouse assessed as analgesia at 5 mg/kg, ip measured after 30 mins by tail flick test (reference value: -7%). In kind it is functional.
Assay [5] relates to Mus musculus. The assay is described as follows: Antinociceptive activity in C57BL6/J mouse assessed as analgesia at 5 mg/kg, ip measured after 60 mins by tail flick test (reference value: 3%). In kind it is functional. On the technique in general: In hot-plate and tail-flick tests a longer latency is read as antinociception.
Assay [6] has as its system Mus musculus. The assay is described as follows: Antinociceptive activity in C57BL6/J mouse assessed as analgesia at 5 mg/kg, ip measured after 90 mins by tail flick test (reference value: 10%). In kind it is functional.
For assay [7], the system named is Mus musculus. Description: Antinociceptive activity in C57BL6/J mouse assessed as analgesia at 5 mg/kg, ip measured after 120 mins by tail flick test (reference value: -8%). In kind it is functional.
Assay [8] relates to Mus musculus. The assay is described as follows: Antinociceptive activity in C57BL6/J mouse assessed as analgesia at 8 mg/kg, ip measured after 30 mins by tail flick test (reference value: -7%). The class given is functional.
For assay [9], the system named is Mus musculus. Description: Antinociceptive activity in C57BL6/J mouse assessed as analgesia at 8 mg/kg, ip measured after 60 mins by tail flick test (reference value: 3%). The class given is functional.
The test system of assay [10] is Mus musculus. The assay is described as follows: Antinociceptive activity in C57BL6/J mouse assessed as analgesia at 8 mg/kg, ip measured after 90 mins by tail flick test (reference value: 10%). The class given is functional.
The test system of assay [11] is Mus musculus. Description: Antinociceptive activity in C57BL6/J mouse assessed as analgesia at 8 mg/kg, ip measured after 120 mins by tail flick test (reference value: -8%). The class given is functional.

Opioid receptor, delta 1b, sequence (B3DH72 whole entry): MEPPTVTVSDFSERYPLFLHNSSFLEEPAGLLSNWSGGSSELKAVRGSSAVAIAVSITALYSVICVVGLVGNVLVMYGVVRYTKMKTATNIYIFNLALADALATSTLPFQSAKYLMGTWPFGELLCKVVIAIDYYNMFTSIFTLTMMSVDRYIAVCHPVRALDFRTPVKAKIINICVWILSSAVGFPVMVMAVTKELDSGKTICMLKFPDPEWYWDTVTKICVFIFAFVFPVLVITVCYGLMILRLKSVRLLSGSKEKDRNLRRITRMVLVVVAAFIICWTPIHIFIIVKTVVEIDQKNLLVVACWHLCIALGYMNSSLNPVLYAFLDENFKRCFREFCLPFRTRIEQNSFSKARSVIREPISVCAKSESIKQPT
Mu opioid receptor-like OR2, sequence (B8JHS2 whole entry): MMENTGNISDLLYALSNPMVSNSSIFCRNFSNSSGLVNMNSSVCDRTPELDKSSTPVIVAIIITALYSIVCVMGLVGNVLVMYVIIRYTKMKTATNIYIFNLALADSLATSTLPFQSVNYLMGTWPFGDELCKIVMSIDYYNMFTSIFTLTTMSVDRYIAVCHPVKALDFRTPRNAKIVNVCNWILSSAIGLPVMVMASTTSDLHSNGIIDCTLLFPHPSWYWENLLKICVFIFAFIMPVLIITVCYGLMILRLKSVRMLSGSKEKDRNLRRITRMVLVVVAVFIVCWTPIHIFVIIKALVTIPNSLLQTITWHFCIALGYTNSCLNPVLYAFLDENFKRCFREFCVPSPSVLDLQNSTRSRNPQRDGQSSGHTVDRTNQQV
Opioid receptor homologue, sequence (A3QJX7 whole entry): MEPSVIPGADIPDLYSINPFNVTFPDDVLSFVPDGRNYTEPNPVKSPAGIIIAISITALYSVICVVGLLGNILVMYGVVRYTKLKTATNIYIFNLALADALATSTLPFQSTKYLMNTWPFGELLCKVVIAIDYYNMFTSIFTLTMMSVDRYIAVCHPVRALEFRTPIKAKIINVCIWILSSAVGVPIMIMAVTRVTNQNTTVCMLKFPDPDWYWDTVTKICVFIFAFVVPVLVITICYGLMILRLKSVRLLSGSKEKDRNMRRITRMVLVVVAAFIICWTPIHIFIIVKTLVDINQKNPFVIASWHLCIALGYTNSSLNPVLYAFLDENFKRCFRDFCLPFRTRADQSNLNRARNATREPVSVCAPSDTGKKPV

In general, Ki refers to the dissociation constant of the complex between target and ligand, obtained from inhibition or displacement. Consider `CSCC[C@H](NC(=O)[C@H](Cc1ccccc1)NC(=O)CNC(=O)CNC(=O)[C@@H](N)Cc1ccc(O)cc1)C(=O)O`, for which the figures for the Ki in assay [1] and in [2] were 684 nM and 45 nM, respectively.

With `CSCC[C@@H](NC(=O)[C@@H](N)Cc1ccc(O)cc1)C(=O)NCC(=O)N[C@@H](Cc1ccccc1)C(=O)N1C[C@@H](O[C@@H]2O[C@H](CO)[C@@H](O[C@H]3O[C@@H](CO)[C@@H](O)[C@@H](O)[C@@H]3O)[C@H](O)[C@H]2O)C[C@H]1C(N)=O`, the Ki in assay [1] was 203 nM; in assay [3], 635 nM; in assay [2], 559 nM.

Turning to `CN1CC[C@]23c4c5ccc(O)c4O[C@H]2[C@@H](O)C=C[C@H]3[C@H]1C5` [MORPHINE], the Activity with Mus musculus [4] came out at 30%; in the assay on Mus musculus [5], 51%; with Mus musculus [6] it was 45%; with Mus musculus [7], 30%.

For `CSCC[C@@H](NC(=O)[C@@H](N)Cc1ccc(O)cc1)C(=O)NCC(=O)N[C@@H](Cc1ccccc1)C(=O)N1C[C@@H](O[C@H]2O[C@H](CO)[C@@H](O)[C@H](O)[C@@H]2O)C[C@H]1C(N)=O`, the figures for the Ki in [1], in assay [3] and in assay [2] were 239 nM, 609 nM and 536 nM, respectively. Besides, the Activity with Mus musculus [4] was determined as 40%; in the assay with Mus musculus [5], 60%; in the assay on Mus musculus [6], 50%; in the assay on Mus musculus [7], 40%; with Mus musculus [8], 45%; with Mus musculus [9], 62%. The Activity stood at 35% in the assay with Mus musculus [10] and 45% with Mus musculus [11].

In the case of `CSCC[C@@H](NC(=O)[C@@H](N)Cc1ccc(O)cc1)C(=O)NCC(=O)N[C@@H](Cc1ccccc1)C(=O)N1C[C@@H](O[C@@H]2O[C@H](CO)[C@H](O)[C@H](O)[C@H]2O)C[C@H]1C(N)=O`, the values for the Ki in [1], in assay [3] and in assay [2] were 383 nM, 468 nM and 518 nM, respectively.

In the case of `CSCC[C@@H](NC(=O)[C@@H](N)Cc1ccc(O)cc1)C(=O)NCC(=O)N[C@@H](Cc1ccccc1)C(=O)N1C[C@@H](O[C@@H]2O[C@H](CO)[C@@H](O)[C@H](O)[C@H]2O)C[C@H]1C(N)=O`, the Ki in [1] amounted to 313 nM; in assay [3], 389 nM; in assay [2], 159 nM.

For the compound `CSCC[C@@H](NC(=O)[C@@H](N)Cc1ccc(O)cc1)C(=O)NCC(=O)N[C@@H](Cc1ccccc1)C(=O)N1CCC[C@H]1C(N)=O` (H-Y[dM]GFP-NH2), the figures for the inhibitory constant (Ki) in assay [1], in [3] and in assay [2] were 269 nM, 566 nM and 256 nM, respectively.

Take `CSCC[C@@H](NC(=O)[C@@H](N)Cc1ccc(O)cc1)C(=O)NCC(=O)N[C@@H](Cc1ccccc1)C(=O)N1C[C@@H](O[C@@H]2O[C@H](CO)[C@@H](O[C@H]3O[C@@H](CO)[C@H](O)[C@@H](O)[C@@H]3O)[C@H](O)[C@H]2O)C[C@H]1C(N)=O`: the Ki in assay [1] came out at 223 nM; in assay [3], 843 nM; in assay [2], 528 nM.
